Reference: PubChem BioAssay AID1963968 (Molecular Pharmacology Branch, DTP, NCI, 2024)

System: 945468-187-T-J3-PDC spheroids with HUVEC/MSC, viability
Assay: Anticancer human tumor 945468-187-T-J3-PDC patient-derived rectal carcinoma cell line growth inhibition [PI3K]
Conditions: for IC50: curve of first compound; for viability, T/C: stronger effect = lower value
Procedure, shortened: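 Tumor cells were combined with HUVEC and MSCs into spheroids, then dosed with PI3K-inhibitor combinations over half-log ranges capped near clinical Cmax or 10 microM.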

[1] = second compound 0.0316 µM, first compound 0.0316 µM
[2] = second compound 0.0316 µM, first compound 0.1 µM
[3] = second compound 0.0316 µM, first compound 0.316 µM
[4] = second compound 0.0316 µM, first compound 1 µM
[5] = second compound 0.0316 µM, first compound 3.16 µM
[6] = second compound 0.0316 µM, first compound 10 µM
[7] = second compound 0.1 µM, first compound 0.0316 µM
[8] = second compound 0.1 µM, first compound 0.1 µM
[9] = second compound 0.1 µM, first compound 0.316 µM
[10] = second compound 0.1 µM, first compound 1 µM
[11] = second compound 0.1 µM, first compound 3.16 µM
[12] = second compound 0.1 µM, first compound 10 µM
[13] = second compound 0.316 µM, first compound 0.0316 µM
[14] = second compound 0.316 µM, first compound 0.1 µM
[15] = second compound 0.316 µM, first compound 0.316 µM
[16] = second compound 0.316 µM, first compound 1 µM
[17] = second compound 0.316 µM, first compound 3.16 µM
[18] = second compound 0.316 µM, first compound 10 µM
[19] = second compound 1 µM, first compound 0.0316 µM
[20] = second compound 1 µM, first compound 0.1 µM
[21] = second compound 1 µM, first compound 0.316 µM
[22] = second compound 1 µM, first compound 1 µM
[23] = second compound 1 µM, first compound 3.16 µM
[24] = second compound 1 µM, first compound 10 µM
[25] = second compound 3.16 µM, first compound 0.0316 µM
[26] = second compound 3.16 µM, first compound 0.1 µM
[27] = second compound 3.16 µM, first compound 0.316 µM
[28] = second compound 3.16 µM, first compound 1 µM
[29] = second compound 3.16 µM, first compound 3.16 µM
[30] = second compound 3.16 µM, first compound 10 µM
[31] = second compound 10 µM, first compound 0.0316 µM
[32] = second compound 10 µM, first compound 0.1 µM
[33] = second compound 10 µM, first compound 0.316 µM
[34] = second compound 10 µM, first compound 1 µM
[35] = second compound 10 µM, first compound 3.16 µM
[36] = second compound 10 µM, first compound 10 µM
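Further: spheroids exposed to agents for 7 days before viability read.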
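Wherever viability, T/C is given: 100% = DMSO vehicle control viability.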

In the case of C#Cc1c(F)ccc2cc(O)cc(-c3ncc4c(N5CC6CCC(C5)N6)nc(OCC56CCCN5CC(F)C6)nc4c3F)c12 (stereo unspecified) + CC(Nc1ncnc2nc[nH]c12)c1cc2cccc(Cl)c2c(=O)n1-c1ccccc1, the IC50 (second compound 0.0316 µM) is reported as over 10 µM, the IC50 (second compound 0.1 µM) is reported as over 10 µM and the IC50 (second compound 0.316 µM) is reported as over 10 µM. The IC50 (second compound 1 µM) was over 10 µM, the IC50 (second compound 3.16 µM) was over 10 µM and the IC50 (second compound 10 µM) was over 10 µM. For the same compound, the viability, T/C [1] was 91.2%, the viability, T/C [2] was 93% and the viability, T/C [3] was 103%. It also gave a viability, T/C [4] of 110%, a viability, T/C [5] of 113% and a viability, T/C [6] of 101%. It also gave a viability, T/C [7] of 101%, a viability, T/C [8] of 105% and a viability, T/C [9] of 99.8%. For the same compound, the viability, T/C [10] was 103%, the viability, T/C [11] was 115% and the viability, T/C [12] was 101%. It also gave a viability, T/C [13] of 100%, a viability, T/C [14] of 97.4% and a viability, T/C [15] of 103%. For the same compound, the viability, T/C [16] was 107%, the viability, T/C [17] was 117% and the viability, T/C [18] was 104%. The viability, T/C [19] was 100%, the viability, T/C [20] was 95.2% and the viability, T/C [21] was 96.8%. The viability, T/C [22] was 111%, the viability, T/C [23] was 111% and the viability, T/C [24] was 97.9%. The viability, T/C [25] was 102%, the viability, T/C [26] was 105% and the viability, T/C [27] was 106%. For the same compound, the viability, T/C [28] was 99.8%, the viability, T/C [29] was 110% and the viability, T/C [30] was 101%. It also gave a viability, T/C [31] of 100%, a viability, T/C [32] of 99.5% and a viability, T/C [33] of 111%. The viability, T/C [34] was 126%, the viability, T/C [35] was 121% and the viability, T/C [36] was 92.5%.
CC1(C)CCC(Nc2ncc(C(F)(F)F)c(-c3c[nH]c4c(P(C)(C)=O)c(C#N)ccc34)n2)CN1 (stereo unspecified) + CC(Nc1ncnc2nc[nH]c12)c1cc2cccc(Cl)c2c(=O)n1-c1ccccc1 was tested, and the IC50 (second compound 0.0316 µM) was 4.49 µM, the IC50 (second compound 0.1 µM) was 4.55 µM and the IC50 (second compound 0.316 µM) was 4.74 µM. The IC50 (second compound 1 µM) was 4.69 µM, the IC50 (second compound 3.16 µM) was 4.74 µM and the IC50 (second compound 10 µM) was 4.74 µM. It also gave a viability, T/C [1] of 65.5%, a viability, T/C [2] of 64.1% and a viability, T/C [3] of 58.2%. For the same compound, the viability, T/C [4] was 68.1%, the viability, T/C [5] was 75.1% and the viability, T/C [6] was 12.9%. For the same compound, the viability, T/C [7] was 67.7%, the viability, T/C [8] was 59.8% and the viability, T/C [9] was 54.9%. The viability, T/C [10] was 72%, the viability, T/C [11] was 73% and the viability, T/C [12] was 16.6%. It also gave a viability, T/C [13] of 68.2%, a viability, T/C [14] of 67.4% and a viability, T/C [15] of 55.8%. The viability, T/C [16] was 66.2%, the viability, T/C [17] was 86.7% and the viability, T/C [18] was 15.2%. It also gave a viability, T/C [19] of 79.9%, a viability, T/C [20] of 62.4% and a viability, T/C [21] of 56.6%. It also gave a viability, T/C [22] of 67.5%, a viability, T/C [23] of 78.9% and a viability, T/C [24] of 13.4%. It also gave a viability, T/C [25] of 73.8%, a viability, T/C [26] of 64.3% and a viability, T/C [27] of 59%. For the same compound, the viability, T/C [28] was 66.6%, the viability, T/C [29] was 79.4% and the viability, T/C [30] was 15.7%. The viability, T/C [31] was 78.9%, the viability, T/C [32] was 66.1% and the viability, T/C [33] was 77.9%. The viability, T/C [34] was 58.9%, the viability, T/C [35] was 81.4% and the viability, T/C [36] was 7.98%.
Cn1cnc2c(F)c(Nc3ccc(Br)cc3Cl)c(C(=O)NOCCO)cc21 + COc1c(OCCCN2CCOCC2)ccc2c3n(c(=NC(=O)c4cnc(N)nc4)nc12)CCN3 was tested, and the IC50 (second compound 0.00316 µM) was over 3 µM, the IC50 (second compound 0.01 µM) was 1.25 µM and the IC50 (second compound 0.0316 µM) was 0.154 µM. For the same compound, the IC50 (second compound 0.1 µM) was under 0.00949 µM, the IC50 (second compound 0.316 µM) was under 0.00949 µM and the IC50 (second compound 1 µM) was under 0.00949 µM. For the same compound, the viability, T/C (second compound 0.00316 µM, first compound 0.00949 µM) was 103%, the viability, T/C (second compound 0.00316 µM, first compound 0.03 µM) was 99.9% and the viability, T/C (second compound 0.00316 µM, first compound 0.0949 µM) was 103%. For the same compound, the viability, T/C (second compound 0.00316 µM, first compound 0.3 µM) was 91.7%, the viability, T/C (second compound 0.00316 µM, first compound 0.949 µM) was 91.8% and the viability, T/C (second compound 0.00316 µM, first compound 3 µM) was 68%. The viability, T/C (second compound 0.01 µM, first compound 0.00949 µM) was 96.1%, the viability, T/C (second compound 0.01 µM, first compound 0.03 µM) was 103% and the viability, T/C (second compound 0.01 µM, first compound 0.0949 µM) was 89.8%. It also gave a viability, T/C (second compound 0.01 µM, first compound 0.3 µM) of 80.7%, a viability, T/C (second compound 0.01 µM, first compound 0.949 µM) of 56.4% and a viability, T/C (second compound 0.01 µM, first compound 3 µM) of 29.9%. It also gave a viability, T/C (second compound 0.0316 µM, first compound 0.00949 µM) of 93.5%, a viability, T/C (second compound 0.0316 µM, first compound 0.03 µM) of 67.4% and a viability, T/C (second compound 0.0316 µM, first compound 0.0949 µM) of 64.3%. For the same compound, the viability, T/C (second compound 0.0316 µM, first compound 0.3 µM) was 36.4%, the viability, T/C (second compound 0.0316 µM, first compound 0.949 µM) was 27.8% and the viability, T/C (second compound 0.0316 µM, first compound 3 µM) was 13.7%. It also gave a viability, T/C (second compound 0.1 µM, first compound 0.00949 µM) of 42.2%, a viability, T/C (second compound 0.1 µM, first compound 0.03 µM) of 33.9% and a viability, T/C (second compound 0.1 µM, first compound 0.0949 µM) of 27.4%. It also gave a viability, T/C (second compound 0.1 µM, first compound 0.3 µM) of 14.7%, a viability, T/C (second compound 0.1 µM, first compound 0.949 µM) of 9.64% and a viability, T/C (second compound 0.1 µM, first compound 3 µM) of 3.84%. It also gave a viability, T/C (second compound 0.316 µM, first compound 0.00949 µM) of 17.5%, a viability, T/C (second compound 0.316 µM, first compound 0.03 µM) of 18.3% and a viability, T/C (second compound 0.316 µM, first compound 0.0949 µM) of 10%. For the same compound, the viability, T/C (second compound 0.316 µM, first compound 0.3 µM) was 8.2%, the viability, T/C (second compound 0.316 µM, first compound 0.949 µM) was 3.92% and the viability, T/C (second compound 0.316 µM, first compound 3 µM) was 1.13%. It also gave a viability, T/C (second compound 1 µM, first compound 0.00949 µM) of 13.6%, a viability, T/C (second compound 1 µM, first compound 0.03 µM) of 8.89% and a viability, T/C (second compound 1 µM, first compound 0.0949 µM) of 7.97%. It also gave a viability, T/C (second compound 1 µM, first compound 0.3 µM) of 4.92%, a viability, T/C (second compound 1 µM, first compound 0.949 µM) of 4.14% and a viability, T/C (second compound 1 µM, first compound 3 µM) of 1.82%.
